Reference: patent US10407712B2, “Methods, compositions and kits for high throughput kinase activity screening using mass spectrometry and stable isotopes” (President and Fellows of Harvard College, priority 2008, dated 2019)

Experiments:
HEK293 cell lysates = test: Single-reaction 90-substrate KAYAK assay, HEK293 lysates with or without insulin; format: biochemical, human; settings: 5 μM each peptide, HEK293 lysate
Description: For stimulation of HEK293 cells or HeLa lines, cells were treated with insulin (100 nM; 10-30 min) EGF (50 ng/ml; 10 min) or phorbol 12-myristate 13-acetate (PMA; 50 or 100 ng/ml; 10 -30 min) at 37° C. for the indicated times after overnight serum-starvation.
Alternatively, cells were washed with PBS once and lysed with ice-cold lysis buffer, 10 mM potassium phosphate, pH 7.0, containing 0.5% NP-40, 0.1% Brij 35, 0.1% deoxycholic acid, 1 mM ethylenediaminetetraacetic acid (EDTA), 5 mM ethylene glycol tetraacetic acid (EGTA), 10 mM MgCl2, 50 mM β-glycerophosphate, 1 mM Na3VO4, 2 mM dithiothreitol (DTT) and protease inhibitor cocktail (Complete, Roche Applied Science, Indianapolis, Ind.). Homogenates were centrifuged at 10,000 rpm for 15 min at 4° C., and the supernatant was used as lysate. Protein concentration was quantified by a modified Bradford assay (Pierce).
(§1) Peptides were synthesized, purified and quantified as described in Yu et al. 2009 Proc Natl Acad Sci USA 106: 11606-11611, hereby incorporated by reference herein in its entirety. Each substrate peptide (250 pmol) was mixed to a final concentration of 5 μM in the 50 μL reaction mixture. Alternatively, reactions were performed using 6 μg cell lysate aliquotes mixed to a final volume of 20 μl. Cell lysate or other kinase source was added to the substrate mixture in 25 mM Tris-Cl, pH 7.5, containing 5 mM ATP, 7.5 mM MgCl2, 0.2 mM EGTA, 7.5 mM β-glycerophosphate, 0.1 mM Na3VO4, and 0.1 mM DTT. The reaction was incubated at 25° C. for 60 min and then terminated by the addition of 100 μl of 1% trifluoroacetic acid (TFA) containing a known amount of an internal standard (typically 20 pmol). Alternatively, the reaction was incubated at 20° C. for 45 min before termination with TFA.
Internal standard heavy peptides (5 pmol each) were added as a mixture to the terminated reactions followed by desalting with a solid phase extraction cartridge (SepPak tC18 (50 mg), Waters, Milford, Mass.). Phosphopeptides were enriched as described (Villen et al. 2008 Nat Protoc 3: 1630-1638). […]
For KAYAK analyses, phosphopeptides were dissolved in 5% FA and injected onto a 125-μm-internal diameter fused silica column packed with Magic C18 AQ material (Michrom Bioresources, Auburn, Calif.). Peptides were separated using a two-solvent system: solvent A (0.125% FA and 3% ACN in H2O), solvent B (0.125% FA in ACN) over 32 min gradient, and eluting peptides were directly analyzed using an LTQ-Orbitrap mass spectrometer (Thermo Scientific, San Jose, Calif.) equipped with the electron transfer dissociation option. […]

recombinant RSK1 = target: T1, recombinant RSK1 (Homo sapiens, UniProt Q15418); test: In vitro peptide phosphorylation by purified RSK; format: biochemical; settings: 100 μM peptide, individually reacted
T1 construct: 90 kDa ribosomal S6 kinases 1 (RSK1, 1-735); purchased Cell Signaling Technology (Danvers, Mass.)
T1 sequence (Q15418 whole entry): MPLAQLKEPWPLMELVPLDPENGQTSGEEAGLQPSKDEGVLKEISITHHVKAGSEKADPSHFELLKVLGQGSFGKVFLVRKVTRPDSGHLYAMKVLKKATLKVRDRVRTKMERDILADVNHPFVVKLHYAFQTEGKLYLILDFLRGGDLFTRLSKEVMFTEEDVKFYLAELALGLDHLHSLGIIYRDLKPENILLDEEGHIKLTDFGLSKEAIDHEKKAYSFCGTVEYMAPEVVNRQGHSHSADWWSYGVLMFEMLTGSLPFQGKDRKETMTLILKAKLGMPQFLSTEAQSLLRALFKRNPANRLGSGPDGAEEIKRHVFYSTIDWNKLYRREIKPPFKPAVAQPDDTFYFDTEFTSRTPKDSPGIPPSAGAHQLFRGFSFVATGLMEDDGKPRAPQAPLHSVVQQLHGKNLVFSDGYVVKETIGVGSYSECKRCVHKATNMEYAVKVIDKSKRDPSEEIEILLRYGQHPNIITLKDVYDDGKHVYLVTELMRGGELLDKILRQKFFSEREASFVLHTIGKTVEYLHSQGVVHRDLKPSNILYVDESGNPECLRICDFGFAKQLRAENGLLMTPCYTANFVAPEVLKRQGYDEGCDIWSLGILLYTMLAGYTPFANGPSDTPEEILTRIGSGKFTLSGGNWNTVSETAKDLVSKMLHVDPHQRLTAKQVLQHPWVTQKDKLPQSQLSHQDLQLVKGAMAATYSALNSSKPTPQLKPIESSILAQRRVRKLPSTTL
Text: Reaction mixture was supplemented with 0.1% BSA. Other conditions were the same as in FIG. 10A.
Purified human active kinases of Akt1 (full length), extracellular signal-regulated kinase 1 (ERK1, 1-379), mitogen-activated protein kinase kinase 1 (MEK1, 1-393), 90 kDa ribosomal S6 kinases 1 (RSK1, 1-735), cAMP-dependent protein kinase (PKA) catalytic subunit-α (PKA Cα, 1-351), protein kinase Cα (PKCα, full length), epidermal growth factor (EGF) receptor (EGFR, 672-1210), platelet-derived growth factor (PDGF) receptor α (PDGFRα, 550-1090), vascular endothelial growth factor (VEGF) receptor 1 (VEGFR1 784-1338), Src (full length), casein kinase 2 (CK2, full length), Aurora A (1-403), AMP-activated protein kinase α1β1γ1 (AMPK α1β1γ1, full length), glycogen synthase kinase-3α (GSK-3α, 1-483) and MAP/microtubule affinity-regulating kinase 1 (MARK 1, full length) were obtained from Cell Signaling Technology (Danvers, Mass.). Cdc2/cyclin B1 (full length) and insulin-like growth factor (IGF)-I receptor (IGFIR, 959-1367) were obtained from Upstate (Temecula, Calif.).
as §1, with “Each substrate peptide (250 pmol) was mixed to a final concentration of 5 μM in the 50 μL reaction mixture.” left out
It was observed that basal phosphorylation of these peptides was not affected by knockdown and likely was the result of remaining RSK isoforms or other basophilic kinases (FIG. 5C).

phosphorylation by RSK (recombinant RSK1): strong phosphorylation
Sequence: RIRTQSFSLQPFR (The sequence was designed and synthesized) [F6]
phosphorylation in response to insulin stimulation (HEK293 cell lysates): increased phosphorylation
